Experimental data as given in patent US4522824A, “Indole derivatives of tryptamine and cardiovascular compositions thereof” (Sanofi, priority 1982, dated 1985).
Structures can show the parent of a compound that is named as a salt.

Legend:
[1] = Cardiac frequency in the alert dog after oral administration; format: in vivo
From the text: The different results on the cardiovascular system obtained in the anaesthetized dog have been confirmed for certain products in the alert dog after administration of the product by the oral route.

β-adrenergic receptors = assay: Antagonism of the effects of isoprenaline (tachycardia) in the anaesthetized dog; format: in vivo; conditions: dose inhibiting 80% of the tachycardia induced by i.v. isoprenaline, intravenous
Experimental: (§1) In vivo pharmacological action in the dog
(§2) The dog is anaesthetized with sodium pentobarbital, administered by the intravenous route at the dose of 30 mg/kg. A cannula placed in the short saphenous vein allows the products to be injected intravenously. The animal is intubated and allowed to breathe spontaneously.
(§3) The cardiac frequency (C.F.) and the systemic arterial pressure (A.P.) and the parameter (dP/dt)p^-1 max which expresses the cardiac contractibility are recorded with the aid of catheters and the variations in these parameters are measured after intravenous injection of the product to be tested, each product being tested at increasing doses.
Antagonism of the effects of isoprenaline
The antagonism of the products with respect to the stimulating cardiovascular effects of isoprenaline on the β-adrenergic receptors was sought. The results are shown in Table II hereinafter and expressed in ID80 : this is the dose expressed in mg/kg which provokes inhibition of 80% of the tachycardia induced by the isoprenaline administered by the intravenous route.

α-adrenergic receptors = assay: Antagonism of the effects of noradrenaline (pressive response) in the dog; format: in vivo; conditions: dose inhibiting 50% of the pressive response to i.v. noradrenaline
Experimental: as §1, §2, §3
Antagonism of the effects of noradrenaline
The antagonism of the products with respect to the vascular effects provoked by the intravenous administration of noradrenaline on the α-adrenergic receptors was sought. The results shown in Table II are expressed in ID50 : this is the dose (mg/kg) which provokes the inhibition of 50% of the pressive response due to the intravenous administration of noradrenaline.

[2] = In vivo pharmacological action in the anaesthetized dog (cardiac frequency, systemic arterial pressure, cardiac contractibility); conditions: Table II, parameter name is in the drawing [drawing 9], intravenous; for direct effect: first sign; for direct effect, [drawing 9]: second sign (wrapped to next line)
Experimental: as §1, §2, §3

[3] = Chronotropic effect in the dog subjected to reserpine and anaesthetized; format: in vivo; conditions: 1 mg/kg intravenous

For CCOC(=O)c1cc2c(OCC(O)CNC(C)(C)Cc3c[nH]c4ccc(F)cc34)cccc2[nH]1 (stereo not drawn) [SR41779A], the “effect on cardiac frequency” value [1] was “decrease the cardiac frequency or are without action thereon”.

With CCOC(=O)c1cc2c(OCC(O)CNC(C)(C)Cc3c[nH]c4ccc(C)cc34)cccc2[nH]1 (stereo not drawn) [SR41716A] the “effect on cardiac frequency” value [1] was “decrease the cardiac frequency or are without action thereon”.

For CCOC(=O)c1cc2c(OCC(O)CNC(C)(C)Cc3c[nH]c4ccc(Cl)cc34)cccc2[nH]1 (stereo not drawn) [SR41780A], the “effect on cardiac frequency” value [1] was “decrease the cardiac frequency or are without action thereon”.

For CCOC(=O)c1cc2c(OCC(O)CNC(C)(C)Cc3c[nH]c4ccccc34)cccc2[nH]1 (stereo not drawn) [CM40593, 4-[3-[2-(3-indolyl)1,1-dimethylethylamino]2-hydroxypropoxy]2-ethoxycarbonyl indole], the “ID80 isoprenaline, β-effect” value (β-adrenergic receptors) was 0.1 mg/kg, the ID50 (α-adrenergic receptors) was 0.1 mg/kg and the “direct effect” value [2] was “= or .dwnarw”. The “direct effect, [drawing 9]” value [2] was “.uparw” and the chronotropic effect [3] was “slight positive chronotropic effect”.

For CC(C)(Cc1c[nH]c2ccccc12)NCC(O)COc1cccc2[nH]c(C(=O)O)cc12 (stereo not drawn) [SR41828A], the “ID80 isoprenaline, β-effect” value (β-adrenergic receptors) was 0.3 mg/kg, the “direct effect” value [2] was “= or .dwnarw” and the “direct effect, [drawing 9]” value [2] was “=”. The “effect on cardiac frequency” value [1] was “decrease the cardiac frequency or are without action thereon”.

With CCCCN(CCCC)C(=O)c1cc2c(OCC(O)CNC(C)(C)Cc3c[nH]c4ccccc34)cccc2[nH]1 (stereo not drawn) [SR41830A] the “ID80 isoprenaline, β-effect” value (β-adrenergic receptors) was 1 mg/kg and the “direct effect, [drawing 9]” value [2] was “.uparw”.

With CCOC(=O)c1cc2c(OCC(O)CNC(C)Cc3c[nH]c4ccccc34)cccc2[nH]1 (racemic) [SR41294A] the “ID80 isoprenaline, β-effect” value (β-adrenergic receptors) was 0.1 mg/kg, the “direct effect” value [2] was “.dwnarw” and the “direct effect, [drawing 9]” value [2] was “.dwnarw”.

In the case of CC(C)(Cc1c[nH]c2ccccc12)NCC(O)COc1cccc2[nH]c(CO)cc12 (stereo not drawn) [CM41165], the “ID80 isoprenaline, β-effect” value (β-adrenergic receptors) is reported as 0.05 mg/kg, the “direct effect” value [2] is reported as “.dwnarw” and the “direct effect, [drawing 9]” value [2] is reported as “.dwnarw”.

In the case of CC(C)(Cc1c[nH]c2ccccc12)NCC(O)COc1cccc2[nH]c(C#N)cc12 (stereo not drawn) [SR41370A], the “ID80 isoprenaline, β-effect” value (β-adrenergic receptors) is reported as 0.05 mg/kg, the “direct effect” value [2] is reported as “weak .dwnarw” and the “direct effect, [drawing 9]” value [2] is reported as “.uparw”.

For CCOC(=O)c1cc2c(OCC(O)CNC(C)(CO)Cc3c[nH]c4ccccc34)cccc2[nH]1 (stereo not drawn) [SR41832], the “ID80 isoprenaline, β-effect” value (β-adrenergic receptors) was 0.1 mg/kg, the “direct effect” value [2] was “.dwnarw” and the “direct effect, [drawing 9]” value [2] was “.dwnarw”.

For CCOC(=O)c1cc2c(OCC(O)CNC(C)(C)Cc3c[nH]c4ccc(C#N)cc34)cccc2[nH]1 (stereo not drawn) [SR41831A, 4-[3-[(5-cyano 3-indolyl)1,1-dimethylethylamino]2-hydroxypropoxy]2-ethoxycarbonyl indole, neutral fumarate], the “ID80 isoprenaline, β-effect” value (β-adrenergic receptors) was 0.1 mg/kg, the “direct effect” value [2] was “.dwnarw” and the “direct effect, [drawing 9]” value [2] was “.dwnarw”.

For CCOC(=O)c1cc2c(OCC(O)CNC(C)(C)Cc3c[nH]c4ccc(OC)cc34)cccc2[nH]1 (stereo not drawn) [SR41648], the “ID80 isoprenaline, β-effect” value (β-adrenergic receptors) was 0.1 mg/kg, the “direct effect” value [2] was “.dwnarw” and the “direct effect, [drawing 9]” value [2] was “.dwnarw”.

With CC(C)(Cc1c[nH]c2ccccc12)NCC(O)COc1cccc2[nH]c(C(N)=O)cc12 (stereo not drawn) [CM41105] the “ID80 isoprenaline, β-effect” value (β-adrenergic receptors) was 0.1 mg/kg, the “direct effect” value [2] was “weak .dwnarw” and the “direct effect, [drawing 9]” value [2] was “.uparw”.

With CC(C)OC(=O)c1cc2c(OCC(O)CNC(C)(C)Cc3c[nH]c4ccccc34)cccc2[nH]1 (stereo not drawn) [SR41719A] the “effect on cardiac frequency” value [1] was “decrease the cardiac frequency or are without action thereon”.
